From US20240279278A1, “NMU RECEPTOR 2 AGONISTS” (Boehringer Ingelheim International GmbH, priority 2023, published 2024)
Residues, ends and D or L forms follow the SMILES beside them.

Assays:
Format in all cases: cell-based
human NMUR1 receptor = target: T1, human NMUR1 receptor (Homo sapiens, UniProt Q9HB89); test: IP1 Gq HTRF assay, activation of human NMUR1 in buffer; details: CHO-K1 cells expressing human NMUR1, stimulation buffer with 0.1% BSA; read-out: EC50 (hNMUR1) buffer
T1 construct: expressed in transfected cells; host or cells: CHO-K1
T1 sequence (Q9HB89 1-426): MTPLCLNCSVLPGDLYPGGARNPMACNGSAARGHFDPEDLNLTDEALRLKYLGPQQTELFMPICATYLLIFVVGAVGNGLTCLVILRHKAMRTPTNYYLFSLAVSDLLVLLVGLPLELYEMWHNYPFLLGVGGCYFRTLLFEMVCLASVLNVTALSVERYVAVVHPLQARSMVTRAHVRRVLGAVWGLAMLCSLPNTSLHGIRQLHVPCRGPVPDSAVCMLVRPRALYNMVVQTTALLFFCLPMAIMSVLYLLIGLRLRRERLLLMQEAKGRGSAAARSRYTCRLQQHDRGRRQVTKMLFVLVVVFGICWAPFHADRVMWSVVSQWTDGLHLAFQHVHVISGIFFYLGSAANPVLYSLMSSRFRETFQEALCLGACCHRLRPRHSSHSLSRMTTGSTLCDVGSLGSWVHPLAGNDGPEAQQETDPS
Source text: Example 3: IP1 Gq HTRF Assay Activation of Human NMUR2 or Human NMUR1 in Buffer Application of the Homogenous Time Resolved Fluorescence (HTRF) technology optimized for Gq coupled receptors has been described in detail in the Cisbio IP-One Gq kit manual. In brief, a FRET signal (FRET: fluorescence resonance energy transfer) is generated between the donor label of an IP-One antibody (anti-IP1-Tb) and the acceptor label of a tagged IP-One (IP1-d2). Agonism of a Gq coupled receptor increases intracellular IP-One, which competes with labeled IP-One and leads to a reduction of the FRET signal. Frozen stocks of CHO-K1 cells stably expressing the human NMUR1 or NMUR2 receptor were thawed and 5000 cells were seeded in culture medium (HAM'S F12, 10% FCS) into each well of a 384-well assay plate. After seeding, cells were incubated for 24 h in a humidified incubator at 37° C. and 5% CO2. Next, cells were washed once with 50 μL of wash buffer (20 mM Hepes, 1×HBSS, pH 7.4), followed by addition of either 10 μL of stimulation buffer (20 mM Hepes, 1×HBSS, 50 mM LiCl, 0.1% BSA, pH 7.4). Peptide agonists to be tested were dissolved in 100% DMSO and pre-diluted in stimulation buffer at a suitable concentration range for an 8 pt dose-response curve. 5 μL of peptide pre-dilution were then added to each well, followed by another 5 μL of stimulation buffer to give a final concentration of 1% DMSO. Samples were subsequently incubated for 1 hour in a humidified incubator at 37° C. After addition of 5 μL each of IP1-d2 and anti-IP1-Tb, samples were incubated for another 1 hour at room temperature and FRET signals (ratio 665 nm/620 nm) were measured. EC50 values were calculated by nonlinear regression using a 4-parameter sigmoidal curve fit.

human NMUR2 receptor [1] = target: T2, human NMUR2 receptor (Homo sapiens, UniProt Q9GZQ4); test: IP1 Gq HTRF assay, activation of human NMUR2 in buffer; design: expressed in transfected cells; host or cells: CHO-K1; details: CHO-K1 cells expressing human NMUR2, stimulation buffer with 0.1% BSA; read-out: EC50 (hNMUR2) buffer
How it was run: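 CHO-K1 cells stably expressing human NMUR1 or NMUR2, seeded 24 h before assay, stimulated with peptide agonists (8-point dose-response, 1% DMSO final) in HEPES/HBSS buffer with 50 mM LiCl and 0.1% BSA, pH 7.4, 1 h at 37 °C. IP1 accumulation read by HTRF competition (665/620 nm); EC50 from 4-parameter sigmoidal fit.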

human NMUR2 receptor [2] = target: T2, human NMUR2 receptor; test: IP1 Gq HTRF assay, activation of human NMUR2 in human plasma; design: expressed in transfected cells; host or cells: CHO-K1; details: CHO-K1 cells expressing human NMUR2, 100% human plasma; read-out: EC50 (hNMUR2) human plasma
How it was run: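 CHO-K1 cells stably expressing human NMUR2 exposed to peptide agonists (8-point dose-response) in 100% human plasma with 50 mM LiCl, 1% DMSO, for 1 h at 37° C. IP1 accumulation read by HTRF competition (665/620 nm ratio). EC50 from 4-parameter sigmoidal fit.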

T2 sequence (Q9GZQ4 whole entry): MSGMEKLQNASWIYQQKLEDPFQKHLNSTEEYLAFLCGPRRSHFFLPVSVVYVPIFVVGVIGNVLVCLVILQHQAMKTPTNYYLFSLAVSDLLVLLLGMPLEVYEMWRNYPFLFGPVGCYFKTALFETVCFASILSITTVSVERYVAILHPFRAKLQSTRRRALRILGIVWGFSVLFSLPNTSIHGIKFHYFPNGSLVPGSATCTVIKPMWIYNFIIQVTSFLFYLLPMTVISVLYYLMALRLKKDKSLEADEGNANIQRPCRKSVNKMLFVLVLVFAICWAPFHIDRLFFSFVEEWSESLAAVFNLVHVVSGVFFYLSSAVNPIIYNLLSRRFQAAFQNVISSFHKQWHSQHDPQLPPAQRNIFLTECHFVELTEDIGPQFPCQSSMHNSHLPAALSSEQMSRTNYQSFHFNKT

Row | Compound | EC50 (human NMUR1 receptor) [nM] | EC50 (human NMUR2 receptor [1]) [nM] | EC50 (human NMUR2 receptor [2]) [nM]
1 | CCCC[C@H](NC(=O)[C@H](CC(C)C)N(C)C(=O)[C@H](Cc1ccccc1)NC(=O)[C@H](Cc1ccc(O)cc1)NC(=O)CN1CCN(CCNC(=O)CN(C)C(=O)CN(C)C(=O)CN(C)C(=O)CN(C)C(=O)CN(C)C(=O)CN(C)C(=O)CN(C)C(=O)CN(C)C(=O)CN(C)C(=O)CN(C)C(=O)CN(C)C(=O)CN(C)C(=O)CN(C)C(=O)CN(C)C(=O)CN(C)C(=O)CC[C@H](NC(=O)CC[C@H](NC(=O)CC[C@H](NC(=O)CC[C@H](NC(=O)CCCCCCCCCCCCCCCCCCC(=O)O)C(=O)O)C(=O)O)C(=O)O)C(=O)O)CC1)C(=O)N[C@@H](CCCCN)C(=O)N(C)[C@@H](C)C(=O)N[C@@H](CCCNC(=N)N)C(=O)NCC(N)=O [Compound 18, C20DA-gGlu4-Sar15-AEPipAc-Tyr-Phe-NMeLeu-Nle-Lys-NMeAla-Arg-Gly-NH2] (HELM PEPTIDE1{[O=C(O)CCCCCCCCCCCCCCCCCCC(=O)[*:2]].[gGlu].[gGlu].[gGlu].[gGlu].[Sar].[Sar].[Sar].[Sar].[Sar].[Sar].[Sar].[Sar].[Sar].[Sar].[Sar].[Sar].[Sar].[Sar].[Sar].[O=C(CN1CCN(CCN[*:1])CC1)[*:2]].Y.F.[meL].[Nle].K.[meA].R.G.[am]}$$$$V2.0) | > 1000 | 7 | 34.7
2 | CCCC[C@H](NC(=O)[C@H](CC(C)C)N(C)C(=O)[C@H](Cc1ccccc1)NC(=O)[C@H](Cc1ccc(O)cc1)NC(=O)CN1CCN(CCNC(=O)CN(C)C(=O)CN(C)C(=O)CN(C)C(=O)CN(C)C(=O)CN(C)C(=O)CN(C)C(=O)CN(C)C(=O)CN(C)C(=O)CN(C)C(=O)CN(C)C(=O)CN(C)C(=O)CN(C)C(=O)CC[C@H](NC(=O)CC[C@H](NC(=O)CC[C@H](NC(=O)CC[C@H](NC(=O)CCCCCCCCCCCCCCCCCCC(=O)O)C(=O)O)C(=O)O)C(=O)O)C(=O)O)CC1)C(=O)N[C@@H](CCCCN)C(=O)N(C)[C@@H](C)C(=O)N[C@@H](CCCNC(=N)N)C(=O)NCC(N)=O [Compound 19, C20DA-gGlu4-Sar12-AEPipAc-Tyr-Phe-NMeLeu-Nle-Lys-NMeAla-Arg-Gly-NH2] | 1400 | 5.7 | 36.6
3 | CCCC[C@H](NC(=O)[C@H](CC(C)C)N(C)C(=O)[C@H](Cc1ccccc1)NC(=O)[C@H](Cc1ccc(O)cc1)NC(=O)CN1CCN(CCNC(=O)CN(C)C(=O)CN(C)C(=O)CN(C)C(=O)CN(C)C(=O)CN(C)C(=O)CN(C)C(=O)CN(C)C(=O)CN(C)C(=O)CN(C)C(=O)CN(C)C(=O)CN(C)C(=O)CN(C)C(=O)CN(C)C(=O)CN(C)C(=O)CN(C)C(=O)CC[C@H](NC(=O)CC[C@H](NC(=O)CC[C@H](NC(=O)CCCCCCCCCCCCCCCCCCC(=O)O)C(=O)O)C(=O)O)C(=O)O)CC1)C(=O)N[C@@H](CCCN)C(=O)NCC(=O)N[C@@H](CCCNC(=N)N)C(=O)NCC(N)=O [Compound 29, C20DA-gGlu3-Sar15-AEPipAc-Tyr-Phe-NMeLeu-Nle-Orn-Gly-Arg-Gly-NH2] (HELM PEPTIDE1{[O=C(O)CCCCCCCCCCCCCCCCCCC(=O)[*:2]].[gGlu].[gGlu].[gGlu].[Sar].[Sar].[Sar].[Sar].[Sar].[Sar].[Sar].[Sar].[Sar].[Sar].[Sar].[Sar].[Sar].[Sar].[Sar].[O=C(CN1CCN(CCN[*:1])CC1)[*:2]].Y.F.[meL].[Nle].[Orn].G.R.G.[am]}$$$$V2.0) | > 1000 | 52 | 535
4 | CCCC[C@H](NC(=O)[C@H](CC(C)C)N(C)C(=O)[C@H](Cc1ccccc1)NC(=O)[C@H](Cc1ccc(O)cc1)NC(=O)CN1CCN(CCNC(=O)CN(C)C(=O)CN(C)C(=O)CN(C)C(=O)CN(C)C(=O)CN(C)C(=O)CN(C)C(=O)CN(C)C(=O)CN(C)C(=O)CN(C)C(=O)CN(C)C(=O)CN(C)C(=O)CN(C)C(=O)CN(C)C(=O)CN(C)C(=O)CN(C)C(=O)CC[C@H](NC(=O)CC[C@H](NC(=O)CC[C@H](NC(=O)CCCCCCCCCCCCCCCCCCC(=O)O)C(=O)O)C(=O)O)C(=O)O)CC1)C(=O)N[C@@H](CCCN)C(=O)NCCC(=O)N[C@@H](CCCNC(=N)N)C(=O)NCC(N)=O [Compound 30, C20DA-gGlu3-Sar15-AEPipAc-Tyr-Phe-NMeLeu-Nle-Orn-bAla-Arg-Gly-NH2] (HELM PEPTIDE1{[O=C(O)CCCCCCCCCCCCCCCCCCC(=O)[*:2]].[gGlu].[gGlu].[gGlu].[Sar].[Sar].[Sar].[Sar].[Sar].[Sar].[Sar].[Sar].[Sar].[Sar].[Sar].[Sar].[Sar].[Sar].[Sar].[O=C(CN1CCN(CCN[*:1])CC1)[*:2]].Y.F.[meL].[Nle].[Orn].[bAla].R.G.[am]}$$$$V2.0) | > 1000 | 67 | 725
5 | CCCC[C@H](NC(=O)[C@H](CC(C)C)N(C)C(=O)[C@H](Cc1ccccc1)NC(=O)[C@H](Cc1ccc(O)cc1)NC(=O)CN1CCN(CCNC(=O)CN(C)C(=O)CN(C)C(=O)CN(C)C(=O)CN(C)C(=O)CN(C)C(=O)CN(C)C(=O)CN(C)C(=O)CN(C)C(=O)CN(C)C(=O)CN(C)C(=O)CN(C)C(=O)CN(C)C(=O)CC[C@H](NC(=O)CC[C@H](NC(=O)CC[C@H](NC(=O)CC[C@H](NC(=O)CCCCCCCCCCCCCCCCCCC(=O)O)C(=O)O)C(=O)O)C(=O)O)C(=O)O)CC1)C(=O)N[C@@H](CCN)C(=O)N(C)[C@@H](C)C(=O)N[C@@H](CCCNC(=N)N)C(=O)NCC(N)=O [Compound 31, C20DA-gGlu4-Sar12-AEPipAc-Tyr-Phe-NMeLeu-Nle-Dbu-NMeAla-Arg-Gly-NH2] | > 1000 | 3.7 | 14.6
6 | CCCC[C@H](NC(=O)[C@H](CC(C)C)N(C)C(=O)[C@H](Cc1ccccc1)NC(=O)[C@H](Cc1ccc(O)cc1)NC(=O)CN1CCN(CCNC(=O)CN(C)C(=O)CN(C)C(=O)CN(C)C(=O)CN(C)C(=O)CN(C)C(=O)CN(C)C(=O)CN(C)C(=O)CN(C)C(=O)CN(C)C(=O)CN(C)C(=O)CN(C)C(=O)CN(C)C(=O)CC[C@H](NC(=O)CC[C@H](NC(=O)CC[C@H](NC(=O)CC[C@H](NC(=O)CCCCCCCCCCCCCCCCCCC(=O)O)C(=O)O)C(=O)O)C(=O)O)C(=O)O)CC1)C(=O)N[C@@H](CCCCN)C(=O)N1CCC[C@H]1C(=O)N[C@@H](CCCNC(=N)N)C(=O)NCC(N)=O [Compound 32, C20DA-gGlu4-Sar12-AEPipAc-Tyr-Phe-NMeLeu-Nle-Lys-Pro-Arg-Gly-NH2] | 1200 | 6.5 | 31.2
7 | CCCC[C@H](NC(=O)[C@H](CC(C)C)N(C)C(=O)[C@H](Cc1ccccc1)NC(=O)[C@H](Cc1ccc(O)cc1)NC(=O)CN1CCN(CCNC(=O)CN(C)C(=O)CN(C)C(=O)CN(C)C(=O)CN(C)C(=O)CN(C)C(=O)CN(C)C(=O)CN(C)C(=O)CN(C)C(=O)CN(C)C(=O)CN(C)C(=O)CN(C)C(=O)CN(C)C(=O)CN(C)C(=O)CN(C)C(=O)CN(C)C(=O)CC[C@H](NC(=O)CC[C@H](NC(=O)CC[C@H](NC(=O)CCCCCCCCCCCCCCCCCCC(=O)O)C(=O)O)C(=O)O)C(=O)O)CC1)C(=O)N[C@@H](CCCN)C(=O)N(C)[C@@H](C)C(=O)N[C@@H](CCCNC(=N)N)C(=O)NCC(N)=O [Compound 34, C20DA-gGlu3-Sar15-AEPipAc-Tyr-Phe-NMeLeu-Nle-Orn-NMeAla-Arg-Gly-NH2] (HELM PEPTIDE1{[O=C(O)CCCCCCCCCCCCCCCCCCC(=O)[*:2]].[gGlu].[gGlu].[gGlu].[Sar].[Sar].[Sar].[Sar].[Sar].[Sar].[Sar].[Sar].[Sar].[Sar].[Sar].[Sar].[Sar].[Sar].[Sar].[O=C(CN1CCN(CCN[*:1])CC1)[*:2]].Y.F.[meL].[Nle].[Orn].[meA].R.G.[am]}$$$$V2.0) | > 1000 | 9 | 24.6
